Measured values published in ChEMBL document CHEMBL5143679, “Discovery of 3, 6-disubstituted isobenzofuran-1(3H)-ones as novel inhibitors of monoamine oxidases” (Bioorg Med Chem Lett, 2022).

Molecular target: T1, Amine oxidase [flavin-containing] A (Rattus norvegicus, UniProt P21396)
T1 sequence (P21396 whole entry): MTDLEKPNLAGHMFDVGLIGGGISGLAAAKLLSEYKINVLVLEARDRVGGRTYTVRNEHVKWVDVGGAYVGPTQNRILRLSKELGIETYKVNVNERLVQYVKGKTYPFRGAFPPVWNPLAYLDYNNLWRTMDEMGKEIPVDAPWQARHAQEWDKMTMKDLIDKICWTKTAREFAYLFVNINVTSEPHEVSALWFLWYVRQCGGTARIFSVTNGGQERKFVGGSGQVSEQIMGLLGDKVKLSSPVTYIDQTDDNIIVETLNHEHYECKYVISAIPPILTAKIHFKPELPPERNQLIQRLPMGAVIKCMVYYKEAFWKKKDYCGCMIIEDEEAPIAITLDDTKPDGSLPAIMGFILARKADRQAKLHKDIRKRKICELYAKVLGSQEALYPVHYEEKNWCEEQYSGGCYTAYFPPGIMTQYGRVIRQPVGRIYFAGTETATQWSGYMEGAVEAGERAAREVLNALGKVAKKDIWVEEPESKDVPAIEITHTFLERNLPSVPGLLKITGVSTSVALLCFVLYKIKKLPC
Experiment: Inhibition of Sprague-Dawley rat MAO-A

C[C@H](NCc1ccc(OCc2cccc(F)c2)cc1)C(N)=O [SAFINAMIDE]
IC50: 2.8 µM
